Like-named read-outs stand apart in the source and are kept apart here.
Legend:
Assay type in all cases: in vivo
[1] = system: Ipomoea hederacea (IPOHE); experiment: Post-emergence efficacy, Method B; conditions: Method B, 100=total damage to plant, 0=no damage, read-out: Control of weed species after post-emergence application, IPOHE
Protocol: (§1) An “instant formulation”, known as the IF50, containing 50 g/L of the “technical” (i.e. unformulated) active ingredient was prepared by dissolving the active ingredient in a mixture of organic solvents and emulsifier, details of which are provided in the table. This IF50 was then mixed with a small, variable amount of acetone to aid dissolution, before addition of an aqueous solution of 1% v/v ammonium sulphate+1% v/v Empicol ESC70 (Sodium lauryl ether sulphate) adjuvant, as the aqueous diluent, to form an aqueous spray solution which contains a predetermined concentration of the active ingredient (which varies depending on the application rate of the active ingredient to the plants).
(§2) This aqueous spray solution was then sprayed onto the plants, after about 12 days' cultivation. The plants were grown from seeds sown in standard soil, placed in a glasshouse under controlled conditions (at 24/18° C. or 20/16° C., day/night; 16 hours light; 65% humidity). After spray application the plants were then grown on in a glasshouse under the same conditions and watered twice daily. […] the test was evaluated (100=total damage to plant; 0=no damage to plant).
(§3) Ipomoea hederacea (IPOHE), Euphorbia heterophylla (EPHHL), Chenopodium album (CHEAL), Amaranthus retroflexus (AMARE), Lolium perenne (LOLPE), Digitaria sanguinalis (DIGSA), Eleusine indica (ELEIN), Echinochloa crus-galli (ECHCG), Setaria faberi (SETFA)

Setaria faberi (SETFA) [2] = experiment: Post-emergence efficacy, Method B; conditions: Method B, 100=total damage to plant, 0=no damage, read-out: Control of weed species after post-emergence application, SETFA
Protocol: as §1, §2, §3

Lolium perenne (LOLPE) [3] = experiment: Post-emergence efficacy, Method B; conditions: Method B, 100=total damage to plant, 0=no damage, read-out: Control of weed species after post-emergence application, LOLPE
Protocol: as §1, §2, §3

[4] = system: Euphorbia heterophylla (EPHHL); experiment: Post-emergence efficacy, Method B; conditions: Method B, 100=total damage to plant, 0=no damage, read-out: Control of weed species after post-emergence application, EPHHL
Protocol: as §1, §2, §3

[5] = system: Digitaria sanguinalis (DIGSA); experiment: Post-emergence efficacy, Method B; conditions: Method B, 100=total damage to plant, 0=no damage, read-out: Control of weed species after post-emergence application, DIGSA
Protocol: as §1, §2, §3

[6] = system: Echinochloa crus-galli (ECHCG); experiment: Post-emergence efficacy, Method B; conditions: Method B, 100=total damage to plant, 0=no damage, read-out: Control of weed species after post-emergence application, ECHCG
Protocol: as §1, §2, §3

Eleusine indica (ELEIN) [7] = experiment: Post-emergence efficacy, Method B; conditions: Method B, 100=total damage to plant, 0=no damage, read-out: Control of weed species after post-emergence application, ELEIN
Protocol: as §1, §2, §3

[8] = system: Chenopodium album (CHEAL); experiment: Post-emergence efficacy, Method B; conditions: Method B, 100=total damage to plant, 0=no damage, read-out: Control of weed species after post-emergence application, CHEAL
Protocol: as §1, §2, §3

[9] = system: Amaranthus retroflexus (AMARE); experiment: Post-emergence efficacy, Method B; conditions: Method B, 100=total damage to plant, 0=no damage, read-out: Control of weed species after post-emergence application, AMARE
Protocol: as §1, §2, §3

[10] = system: Ipomoea hederacea (IPOHE); experiment: Post-emergence efficacy, Method A; conditions: Ipomoea hederacea, post-emergence, 312 h, evaluated after 13 days
Summary of the method: (§4)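 Sow in standard soil; grow 14 d under glasshouse control (24/16 °C, 14 h light, 65% humidity). Spray post-emergence with compound formulated in acetone/IF50, diluted in Empicol ESC70 (0.25% or 1%) + 1% ammonium sulphate. Return to glasshouse, water twice daily, score at 13 d on a 0–100 damage scale.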

Setaria faberi (SETFA) [11] = experiment: Post-emergence efficacy, Method A; conditions: Setaria faberi, post-emergence, 312 h, evaluated after 13 days
Summary of the method: as §4

[12] = system: Amaranthus palmeri (AMAPA); experiment: Post-emergence efficacy, Method A; conditions: Amaranthus palmeri, post-emergence, 312 h, evaluated after 13 days
Summary of the method: as §4

Lolium perenne (LOLPE) [13] = experiment: Post-emergence efficacy, Method A; conditions: Lolium perenne, post-emergence, 312 h, evaluated after 13 days
Summary of the method: as §4

[14] = system: Euphorbia heterophylla (EPHHL); experiment: Post-emergence efficacy, Method A; conditions: Euphorbia heterophylla, post-emergence, 312 h, evaluated after 13 days
Summary of the method: as §4

[15] = system: Digitaria sanguinalis (DIGSA); experiment: Post-emergence efficacy, Method A; conditions: Digitaria sanguinalis, post-emergence, 312 h, evaluated after 13 days
Summary of the method: as §4

[16] = system: Echinochloa crus-galli (ECHCG); experiment: Post-emergence efficacy, Method A; conditions: Echinochloa crus-galli, post-emergence, 312 h, evaluated after 13 days
Summary of the method: as §4

Eleusine indica (ELEIN) [17] = experiment: Post-emergence efficacy, Method A; conditions: Eleusine indica, post-emergence, 312 h, evaluated after 13 days
Summary of the method: as §4

[18] = system: Chenopodium album (CHEAL); experiment: Post-emergence efficacy, Method A; conditions: Chenopodium album, post-emergence, 312 h, evaluated after 13 days
Summary of the method: as §4

In the case of `O=S(=O)([O-])CC[n+]1ccc(-c2ccncn2)cn1` [Compound A4], the pest or weed control at 500 g/ha ([1]; 500 g/Ha) is reported as 100%, the pest or weed control at 500 g/ha (Setaria faberi (SETFA) [2]; 500 g/Ha) is reported as 40% and the pest or weed control at 500 g/ha (Lolium perenne (LOLPE) [3]; 500 g/Ha) is reported as 90%. For the same compound, the pest or weed control at 500 g/ha ([4]; 500 g/Ha) was 100%, the pest or weed control at 500 g/ha ([5]; 500 g/Ha) was 100% and the pest or weed control at 500 g/ha ([6]; 500 g/Ha) was 70%. It also gave a pest or weed control at 500 g/ha (Eleusine indica (ELEIN) [7]; 500 g/Ha) of 80%, a pest or weed control at 500 g/ha ([8]; 500 g/Ha) of 80% and a pest or weed control at 500 g/ha ([9]; 500 g/Ha) of 100%. It also gave a pest or weed control at 500 g/ha ([10]; Application rate 500 g/Ha, 100=total damage to plant, 0=no damage to plant, read-out: Control of weed species after post-emergence application, IPOHE) of 90%, a pest or weed control at 500 g/ha (Setaria faberi (SETFA) [11]; Application rate 500 g/Ha, 100=total damage to plant, 0=no damage to plant, read-out: Control of weed species after post-emergence application, SETFA) of 60% and a pest or weed control at 500 g/ha ([12]; Application rate 500 g/Ha, 100=total damage to plant, 0=no damage to plant, read-out: Control of weed species after post-emergence application, AMAPA) of 100%. For the same compound, the pest or weed control at 500 g/ha (Lolium perenne (LOLPE) [13]; Application rate 500 g/Ha, 100=total damage to plant, 0=no damage to plant, read-out: Control of weed species after post-emergence application, LOLPE) was 100%, the pest or weed control at 500 g/ha ([14]; Application rate 500 g/Ha, 100=total damage to plant, 0=no damage to plant, read-out: Control of weed species after post-emergence application, EPHHL) was 100% and the pest or weed control at 500 g/ha ([15]; Application rate 500 g/Ha, 100=total damage to plant, 0=no damage to plant, read-out: Control of weed species after post-emergence application, DIGSA) was 80%. It also gave a pest or weed control at 500 g/ha ([16]; Application rate 500 g/Ha, 100=total damage to plant, 0=no damage to plant, read-out: Control of weed species after post-emergence application, ECHCG) of 60%, a pest or weed control at 500 g/ha (Eleusine indica (ELEIN) [17]; Application rate 500 g/Ha, 100=total damage to plant, 0=no damage to plant, read-out: Control of weed species after post-emergence application, ELEIN) of 100% and a pest or weed control at 500 g/ha ([18]; Application rate 500 g/Ha, 100=total damage to plant, 0=no damage to plant, read-out: Control of weed species after post-emergence application, CHEAL) of 80%.

With `O=C([O-])CCC[n+]1ccc(-c2ncccn2)cn1` [Compound A220] the pest or weed control at 1000 g/ha ([1]; 1000 g/Ha) was 30%, the pest or weed control at 1000 g/ha (Setaria faberi (SETFA) [2]; 1000 g/Ha) was 30% and the pest or weed control at 1000 g/ha (Lolium perenne (LOLPE) [3]; 1000 g/Ha) was 90%. The pest or weed control at 1000 g/ha ([4]; 1000 g/Ha) was 100%, the pest or weed control at 1000 g/ha ([5]; 1000 g/Ha) was 100% and the pest or weed control at 1000 g/ha ([6]; 1000 g/Ha) was 90%. The pest or weed control at 1000 g/ha (Eleusine indica (ELEIN) [7]; 1000 g/Ha) was 100%, the pest or weed control at 1000 g/ha ([8]; 1000 g/Ha) was 90% and the pest or weed control at 1000 g/ha ([9]; 1000 g/Ha) was 100%. The pest or weed control at 500 g/ha ([10]; Application Rate 500 g/Ha, Method A, read-out: Control of weed species after post-emergence application, IPOHE (100=total damage to plant; 0=no damage to plant)) was 80%, the pest or weed control at 500 g/ha (Setaria faberi (SETFA) [11]; Application Rate 500 g/Ha, Method A, read-out: Control of weed species after post-emergence application, SETFA (100=total damage to plant; 0=no damage to plant)) was 60% and the pest or weed control at 500 g/ha ([12]; Application Rate 500 g/Ha, Method A, read-out: Control of weed species after post-emergence application, AMAPA (100=total damage to plant; 0=no damage to plant)) was 100%. The pest or weed control at 500 g/ha (Lolium perenne (LOLPE) [13]; Application Rate 500 g/Ha, Method A, read-out: Control of weed species after post-emergence application, LOLPE (100=total damage to plant; 0=no damage to plant)) was 60%, the pest or weed control at 500 g/ha ([14]; Application Rate 500 g/Ha, Method A, read-out: Control of weed species after post-emergence application, EPHHL (100=total damage to plant; 0=no damage to plant)) was 90% and the pest or weed control at 500 g/ha ([15]; Application Rate 500 g/Ha, Method A, read-out: Control of weed species after post-emergence application, DIGSA (100=total damage to plant; 0=no damage to plant)) was 90%. The pest or weed control at 500 g/ha ([16]; Application Rate 500 g/Ha, Method A, read-out: Control of weed species after post-emergence application, ECHCG (100=total damage to plant; 0=no damage to plant)) was 40%, the pest or weed control at 500 g/ha (Eleusine indica (ELEIN) [17]; Application Rate 500 g/Ha, Method A, read-out: Control of weed species after post-emergence application, ELEIN (100=total damage to plant; 0=no damage to plant)) was 20% and the pest or weed control at 500 g/ha ([18]; Application Rate 500 g/Ha, Method A, read-out: Control of weed species after post-emergence application, CHEAL (100=total damage to plant; 0=no damage to plant)) was 100%.
